Patent US20140051696A1, “THERAPIES FOR TREATING CANCER” (GILEAD CALISTOGA LLC, priority 2012, published 2014)
“Also recorded” adds a separate entry of the source. Where two headings read alike, the source gives them in different places.

Assays:
[1] = test system: AKT phosphorylation (S473) in CLL cells; experiment: Flow cytometry phospho-Akt in CLL cells co-cultured with HS5 stromal cells; format: cell-based, human; settings: CLL cells of 15 patients co-cultured with HS5 stromal cells
Excerpt: (§1) Ficoll purified CLL cells obtained from 15 patients were co-cultured with HS5 stromal cells then treated with each compound alone or in combination. CLL cells were stained with anti-CD5-FITC and either anti-phospho-Akt S473 (Alexa Fluor 488), phospho-S6 or an […] control antibody (mouse IgG1-Alexa Fluor 488 conjugate, Cell Signaling) and analyzed by 2-color flow cytometry.

[2] = Safety and tolerability in healthy human subjects; settings: for tolerability: over the dose range evaluated, healthy subjects
Excerpt: The endpoints evaluated include AEs, physical examination and clinical laboratory test findings, 12-lead ECG abnormalities and interval measurements, and vitals signs measurements.
Safety data for each cohort was reviewed after the 10-day observation period following each 4 day treatment period. Subsequent treatments in each cohort were only initiated following post dose safety assessments.

[3] = test system: ERK phosphorylation (T202/Y204) in Ramos cells; experiment: Immunoblot phospho-Erk in Ramos cells after anti-IgM BCR stimulation; format: cell-based, human; settings: 1 uM each, IgM mediated BCR stimulation
Procedure: (§2) 5×10^6 Ramos (a Burkitt's cell line with intact BCR) were plated and treated with 1 uM of Compound A, 1 uM of Compound B, alone or in combination for 25 hours. Twenty μg Goat F(ab′)2 anti-human IgM (Invitrogen) was added to stimulate the BCR for 30 minutes. Protein were isolated and analyzed using immune-blotting with phospho-Akt (S473), phospho-Erk (T202/Y204), and phospho-S6.

[4] = Plasma pharmacokinetics in healthy human subjects, alone or in combination; settings: for AUC / Cmax: human, Mean (% CV); for AUC: AUCtau
Procedure: On Day 1, PK samples were collected at pre-dose, 2, 4, 8, and 12 hours post dose. On Day 4, samples were collected relative to the AM dose of study drug(s) at the following time points: pre-dose, 1, 2, 2.5, 3, 4, 6, 8, 10, 12, 18, 24, 36, and 48 hours post dose. Trough PK samples were collected on Day 3 prior to dosing.

[5] = test system: S6 phosphorylation in CLL cells; experiment: Flow cytometry phospho-S6 in CLL cells co-cultured with HS5 stromal cells; format: cell-based, human; settings: CLL cells of 15 patients co-cultured with HS5 stromal cells
Excerpt: as §1

primary CLL cells = experiment: MTS cell viability assay of primary CLL cells in HS-5 conditioned media; settings: Homo sapiens
Procedure: (§3) In this Example, CLL patient samples were assessed for growth inhibition, chemokine release, and pathway activation status using a tetrazolium-based MTS assay, ELISA, and flow cytometry, respectively. Peripheral blood mononuclear cells (PBMCs) were isolated from primary patient samples using a Ficoll-Paque gradient. […] 5×10^5 primary cells were cultured in triplicate in HS-5 stromal cell conditioned media and growth inhibition was determined after 72 hours.
Peripheral blood (PB) or bone marrow (BM) was collected from 14 CLL patients with untreated, relapsed, or refractory diseases. Mononuclear cells were isolated using a Ficoll-Paque gradient and were plated in triplicate into 96-well containing HS-5 conditioned media plus equimolar concentrations of Compound A and Compound B (10 μM to 0.61 nM). After 72 hours, viability was determined by MTS assay (CellTiter 96, Promega).

[6] = test system: AKT phosphorylation (S473) in Ramos cells; experiment: Immunoblot phospho-Akt in Ramos cells after anti-IgM BCR stimulation; format: cell-based, human; settings: 1 uM each, IgM mediated BCR stimulation
Procedure: as §2

CCL2, CCL3, and CCL4 = experiment: Chemokine release ELISA, CLL patient samples in conditioned media; format: cell-based, human; settings: patient samples cultured in conditioned media; alone and in combination
Procedure: as §3

recurrent CLL = settings: cited from earlier work; for median progression-free survival (PFS): patients with recurrent CLL
WSU-FSCCL parental cells = experiment: AlamarBlue growth inhibition, WSU-FSCCL parental cells; format: cell-based, human; settings: initially, 72 hr
Procedure: The WSU-FSCCL parental cells were, initially, responsive to treatment of Compound A (FIG. 10A). […] Such cells were cultured and referred to as WSU-FSCCL resistant cells. This reflects a commonly observed clinical situation that patients become resistance or no longer respond to the existing treatment. Both the parental and the resistant cells of WSU-FSCCL were used in this study.
A 7× serial dilution of Compound A and Compound C from a stock of 10 mM (DMSO) was prepared using RPMI+10% FBS (270 μM). The WS-FSCCL cells were added with the compounds in the serial dilution and incubated at 37° C. for 72 hr, followed by the addition of 12.5 μL AlamarBlue (Invitrogen #DAL1100). Plates were then incubated at 37° C. for 4 hours.
The change of color from uptake of the stains in the living cells was measured for absorbance. Fluorescence Ex530, Em590, Cutoff570 on Spectramax M5 (Molecular Dynamics) were determined. To calculate the 50% inhibition of growth (GI50), the reading from the samples were compared to the controls (100% or 0% absorption).

[7] = test system: WSU-FSCCL resistant cells; experiment: AlamarBlue growth inhibition, WSU-FSCCL resistant cells; format: cell-based, human; settings: 72 hr
Procedure: The WSU-FSCCL parental cells were, initially, responsive to treatment of Compound A (FIG. 10A). […] Such cells were cultured and referred to as WSU-FSCCL resistant cells. This reflects a commonly observed clinical situation that patients become resistance or no longer respond to the existing treatment. Both the parental and the resistant cells of WSU-FSCCL were used in this study. […] The […] cells were added with the compounds in the serial dilution and incubated at 37° C. for 72 hr, followed by the addition of 12.5 μL AlamarBlue (Invitrogen #DAL1100). Plates were then incubated at 37° C. for 4 hours. The change of color from uptake of the stains in the living cells was measured for absorbance. Fluorescence Ex530, Em590, Cutoff570 on Spectramax M5 (Molecular Dynamics) were determined.

[8] = Compound B analyte, Compound B 200 mg + Compound A 100 mg vs Compound B 200 mg
[9] = Compound B analyte, Compound B 600 mg + Compound A 100/150 mg vs Compound B 600 mg
[10] = in vivo, 200 mg, Compound B analyte, Compound B 200 mg BID alone, fed (N = 8)
[11] = in vivo, 600 mg, Compound B analyte, Compound B 600 mg BID alone, fed (N = 16)
[12] = in vivo, Compound B analyte, Compound B 200 mg + Compound A 100 mg BID, fed (N = 8)
[13] = in vivo, Compound B analyte, Compound B 600 mg + Compound A 100/150 mg BID, fed (N = 14)
[14] = Compound A analyte, Compound A 150 mg + Compound B 600 mg vs Compound A 150 mg
[15] = Compound A analyte, Compound A 100 + Compound B 200 or 600 mg vs Compound A 100 mg
[16] = plasma, oral, 100 mg, Compound A analyte, Compound A 100 mg BID alone, fed (N = 16)
[17] = plasma, oral, 150 mg, Compound A analyte, Compound A 150 mg BID alone, fed (N = 7)
[18] = plasma, oral, Compound A analyte, Compound A 150 mg + Compound B 600 mg BID, fed (N = 6)
[19] = plasma, oral, Compound A analyte, Compound A 100 + Compound B 200 or 600 mg BID, fed (N = 16)

c1cn2cc(-c3ccc4cn[nH]c4c3)nc(Nc3ccc(N4CCOCC4)cc3)c2n1 [Compound B, 6-(1H-indazol-6-yl)-N-(4-morpholinophenyl)imidazo[1,2-a]pyrazin-8-amine]
AKT phosphorylation in CLL cells [1]: inhibited or decreased
tolerability [2]: generally well-tolerated
ERK phosphorylation in Ramos cells [3]: inhibit or reduced; also recorded: near complete inhibition or reduction
Ctau, Mean (% CV) ([4]; Compound B analyte, Compound B 200 mg + Compound A 100 mg BID, fed (N = 8)): 380 (62) ng/ml
AUCtau, % Geometric Least Squares Means Ratio (90% CI), Combination vs. Alone [4, 8]: 1.64 (1.41, 1.91) %
Cmax, % Geometric Least Squares Means Ratio (90% CI), Combination vs. Alone [4, 8]: 1.50 (1.24, 1.80) %
Ctau, % Geometric Least Squares Means Ratio (90% CI), Combination vs. Alone [4, 8]: 1.96 (1.61, 2.38) %
Ctau, Mean (% CV) ([4]; Compound B analyte, Compound B 200 mg BID alone, fed (N = 8)): 201 (661) ng/ml
Ctau, Mean (% CV) ([4]; Compound B analyte, Compound B 600 mg + Compound A 100/150 mg BID, fed (N = 14)): 1120 (72) ng/ml
AUCtau, % Geometric Least Squares Means Ratio (90% CI), Combination vs. Alone [4, 9]: 1.51 (1.30, 1.75) %
Cmax, % Geometric Least Squares Means Ratio (90% CI), Combination vs. Alone [4, 9]: 1.38 (1.20, 1.59) %
Ctau, % Geometric Least Squares Means Ratio (90% CI), Combination vs. Alone [4, 9]: 1.74 (1.48, 2.03) %
Ctau, Mean (% CV) ([4]; Compound B analyte, Compound B 600 mg BID alone, fed (N = 16)): 832 (82) ng/ml
AUC [4, 10]: 4.15 µg·h/mL
Cmax [4, 10]: 0.618 µg/mL
AUC [4, 11]: 12.7 µg·h/mL
Cmax [4, 11]: 1.57 µg/mL
AUC [4, 12]: 6.75 µg·h/mL
AUC [4, 13]: 16 µg·h/mL
Cmax [4, 12]: 0.915 µg/mL
Cmax [4, 13]: 1.9 µg/mL
S6 phosphorylation in CLL cells [5]: inhibited or decreased
IC50 (primary CLL cells; 72 h, read-out: median cell viability IC50): 3.7 µM
IC50 (primary CLL cells; read-out: cell viability IC50 obtained in 7 samples (50%)): ≤ 2 µM
AKT phosphorylation in Ramos cells [6]: inhibited or decreased
production of CCL2, CCL3, and CCL4 by CLL cells (CCL2, CCL3, and CCL4): reduced

alemtuzumab
median progression-free survival (PFS) (recurrent CLL): 4.7 months

CC[C@H](Nc1ncnc2[nH]cnc12)c1nc2cccc(F)c2c(=O)n1-c1ccccc1 [Compound A, (S)-2-(1-(9H-purin-6-ylamino)propyl)-5-fluoro-3-phenylquinazolin-4(3H)-one]
response of WSU-FSCCL parental cells to treatment (WSU-FSCCL parental cells): responsive
AKT phosphorylation in CLL cells [1]: inhibited or decreased
adverse event leading to discontinuation of treatment ([2]; one individual, during Compound A 150 mg dosing): Grade 1 ALT/AST elevation
tolerability [2]: generally well-tolerated
Ctau, Mean (% CV) ([4]; Compound A analyte, Compound A 100 mg BID alone, fed (N = 16)): 127 (44) ng/ml
Ctau, Mean (% CV) ([4]; Compound A analyte, Compound A 150 mg + Compound B 600 mg BID, fed (N = 6)): 411 (29) ng/ml
AUCtau, % Geometric Least Squares Means Ratio (90% CI), Combination vs. Alone [4, 14]: 1.11 (1.00, 1.24) %
Cmax, % Geometric Least Squares Means Ratio (90% CI), Combination vs. Alone [4, 14]: 1.06 (0.93, 1.21) %
Ctau, % Geometric Least Squares Means Ratio (90% CI), Combination vs. Alone [4, 14]: 1.23 (1.03, 1.47) %
Ctau, Mean (% CV) ([4]; Compound A analyte, Compound A 150 mg BID alone, fed (N = 7)): 320 (43) ng/ml
Ctau, Mean (% CV) ([4]; Compound A analyte, Compound A 100 + Compound B 200 or 600 mg BID, fed (N = 16)): 170 (50) ng/ml
AUCtau, % Geometric Least Squares Means Ratio (90% CI), Combination vs. Alone [4, 15]: 1.17 (1.13, 1.22) %
Cmax, % Geometric Least Squares Means Ratio (90% CI), Combination vs. Alone [4, 15]: 1.13 (1.07, 1.20) %
Ctau, % Geometric Least Squares Means Ratio (90% CI), Combination vs. Alone [4, 15]: 1.33 (1.20, 1.48) %
exposure of Compound A, combination vs alone ([4]; healthy subjects): minor variations
AUC [4, 16]: 8.07 µg·h/mL
Cmax [4, 16]: 1.66 µg/mL
AUC [4, 17]: 13.8 µg·h/mL
Cmax [4, 17]: 2.68 µg/mL
AUC [4, 18]: 15.8 µg·h/mL
AUC [4, 19]: 9.51 µg·h/mL
Cmax [4, 18]: 2.87 µg/mL
Cmax [4, 19]: 1.88 µg/mL
cell viability / sensitivity of WSU-FSCCL resistant cells [7]: became resistant to the treatment
S6 phosphorylation in CLL cells [5]: inhibited or decreased
AKT phosphorylation in Ramos cells [6]: inhibited or decreased
production of CCL2, CCL3, and CCL4 by CLL cells (CCL2, CCL3, and CCL4): reduced

rituximab
median PFS (recurrent CLL; addition of high-dose methylprednisone to rituximab): 12 months

ofatumumab
median progression-free survival (PFS) (recurrent CLL): 5.8 months
